Entries after “also recorded” stand apart in the source; their conditions may differ.

In this series the test system is duck hepatocytes. Briefly: Induction of steatosis in cultured duck hepatocytes by incubation with fatty acid. Format: cell-based.

For `CCCCC/C=C\C/C=C\CCCCCCCC(=O)O` [linoleic acid], the “dose response: percentage of hepatocytes with steatosis versus concentration” value (0, 0.1, 0.25, 0.5, 1, 2 μm, FIG. 16B) was “corresponding increase in the percentage of hepatocytes with steatosis”. For the same compound, the “percentage of steatotic hepatocytes” value (2 μM linoleic acid, FIG. 16B) was “above 85%”. In addition, where the note is “2 μM, compared to untreated control, FIG. 16A”, the “induction of steatosis (accumulation of intracellular lipid-containing vesicles)” value is on record as “successful induction of steatosis; also recorded: successfully induced to undergo steatosis”.
